Experimental data published in US7115642B2, “Substituted diphenyl isoxazoles, pyrazoles and oxadiazoles useful for treating HCV infection” (priority 2003, dated 2006).
Read-outs that look alike come from different tables or passages of the source.

Experiments:
[1] = test system: HCV nonstructural protein NS5A or NS3 in 9–13 replicon cells; assay: Quantitative Western blot assay; assay type: cell-based, Hepatitis C virus; details: Hepatitis C virus, read-out: Western IC50
Protocol: Alternatively, the inhibitory activity of the compounds can be confirmed using a quantitative Western immunoblot assay utilizing antibodies specific for HCV non-structural proteins, such as NS3, NS4A NS5A and NS5B. In one embodiment of this assay, replicon cells are treated with varying concentrations of test compound to determine the concentration of test compound that yields a 50% reduction in the amount of a non-structural protein produced as compared to a control sample (IC50). A single non-structural protein may be quantified or multiple non-structural proteins may be quantified. Antibodies suitable for carrying out such immunoblot assays are available commercially (e.g., from BIODESIGN International, Saco, Me.).
Certain exemplary compounds of the invention were also tested for their ability to inhibit HCV replication using a quantitative Western blot analysis with antibodies specific for the HCV nonstructural protein NS5A or NS3. Actively dividing 9–13 replicon cells were seeded into Swell plates at a density of 1×10^5 cells/well in a volume of 2 ml/well and incubated at 37° C. and 5% CO2 for 24 hours. Various concentrations of test compounds (in a volume of 10 ul) were added to the wells and the cells incubated for another 48 hours. Protein samples were prepared from the cultured cells, resolved on a SDS-PAGE gel and transferred to a nitrocellulose membrane. The membrane was blocked with 5% non-fat milk in PBS for 1 hour at room temperature. Primary antibody (anti NS5A antibody; BIODESIGN International, Saco, Me. or anti NS3 antibody, Rigel) incubation was performed for 1 hour at room temperature, after which the membrane was washed 3 times (for 15 min per time) with PBST (PBS plus 0.1% Tween 20). Horseradish peroxidase conjugated secondary antibody incubation was performed for 1 hour at room temperature and the membrane was washed 3 times (for 15 min per time) with PBST. The membrane was then soaked in substrate solution (Pierce) and exposed to a film or quantified using an imager. In this assay, the amount of test compound that yielded a 50% reduction in the amount of NS5A or NS3 protein translated as compared to a control sample (IC50) was determined.
In TABLE 1, a value of “+” indicates an IC50 of 10 μM or less in the specified assay; a value of “−” indicates an IC50 of greater than 10 μM in the specified assay.

[2] = test system: HCV replicon (5-2 Luc replicon-comprising cells); assay: HCV replicon assay (luciferase); assay type: cell-based, Hepatitis C virus; details: Hepatitis C virus, read-out: Replicon IC50
Outline: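 Huh7-derived 5-2 Luc replicon cells seeded 24 h at 37 °C, then exposed to compound at various concentrations for another 24 h. Luciferase quantified by Bright-Glo luminescence; IC50 = concentration giving 50% reduction in luciferase activity; reported as +/− at a 10 μM cut-off.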

[3] = Cytotoxicity assay (Cell Titer Glo); assay type: cell-based; details: human; 48 hr with compound, ATP-dependent Cell Titer Glo assay; read-out: IC50 in cytotoxicity assay (number of viable cells)
Outline: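 HCV replicon-bearing liver cells (5-2 Luc, 9–13 or Huh-7) grown 24 h at 37° C, then exposed to a range of compound concentrations for 48 h at 37° C. Viable cell number by ATP-dependent luminescence (Cell Titer Glo).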

[4] = 9–13 replicon cells, NS5A or NS3 Western blot
[5] = 5-2 Luc replicon cells, luciferase readout

Row | SMILES | IC50 [1] [µM] | melting point [°C] | IC50 [2] [µM] | IC50 [1, 4] [µM] | IC50 at 48 h [3] [µM] | IC50 [2, 5] [µM]
1 | O=C(Nc1cccc(-c2cc(-c3c(Cl)cccc3Cl)no2)c1)C(Cl)Cl [Compound 9, 2,2-Dichloro-N-[3-[3-(2,6-dichlorophenyl)-5-isoxazolyl]phenyl]Acetamide] | < 10 | 167 | < 10 | – | – | –
2 | Cc1ccc(F)c(-c2cc(-c3cccc(NC(=O)C(Cl)Cl)c3)on2)c1Cl [Compound 15, 2,2-Dichloro-N-[3-[3-(2-chloro-6-fluoro-3-methylphenyl)-5-isoxazolyl]phenyl]Acetamide] | – | – | – | < 10 | > 10 | < 10
3 | O=C(Nc1cccc(-c2cc(-c3c(F)cccc3Cl)no2)c1)C(Cl)Cl [Compound 27, 2,2-Dichloro-N-[3-[3-(2-chloro-6-fluorophenyl)-5-isoxazolyl]phenyl]Acetamide] | – | – | – | < 10 | > 5 | < 10
4 | O=C(CI)Nc1cccc(-c2cc(-c3c(Cl)cccc3Cl)no2)c1 [Compound 101, 2-Iodo-N-[3-[3-(2,6-dichlorophenyl)-5-isoxazolyl]phenyl]Acetamide] | – | – | – | > 10 | > 10 | < 10
5 | COC(=O)c1ccc(Cl)c(-c2cc(-c3cccc(NC(=O)C(Cl)Cl)c3)on2)c1Cl [Compound 135, 2,2-Dichloro-N-[3-[3-(3-carbomethoxy-2,6-dichlorophenyl)-5-isoxazolyl]phenyl]Acetamide] | – | – | – | > 10 | > 10 | > 10
6 | Cc1cccc(-c2cc(-c3cccc(NC(=O)C(Cl)Cl)c3)on2)c1C [Compound 163, 2,2-Dichloro-N-[3-[3-(2,3-dimethylphenyl)-5-isoxazolyl]phenyl]Acetamide] | – | – | – | > 10 | > 10 | > 10
